Results as given in patent publication US8134015B2, “Compound inhibiting in vivo phosphorous transport and medicine containing the same” (Kyowa Hakko Kirin Co., Ltd., priority 2003, dated 2012).

Target: T1, rat NaPi-2b (Rattus norvegicus, UniProt Q9JJ09)
T1 construct: expressed in transfected cells; host or cells: Xenopus oocytes injected with cRNA
T1 sequence (Q9JJ09 1-695): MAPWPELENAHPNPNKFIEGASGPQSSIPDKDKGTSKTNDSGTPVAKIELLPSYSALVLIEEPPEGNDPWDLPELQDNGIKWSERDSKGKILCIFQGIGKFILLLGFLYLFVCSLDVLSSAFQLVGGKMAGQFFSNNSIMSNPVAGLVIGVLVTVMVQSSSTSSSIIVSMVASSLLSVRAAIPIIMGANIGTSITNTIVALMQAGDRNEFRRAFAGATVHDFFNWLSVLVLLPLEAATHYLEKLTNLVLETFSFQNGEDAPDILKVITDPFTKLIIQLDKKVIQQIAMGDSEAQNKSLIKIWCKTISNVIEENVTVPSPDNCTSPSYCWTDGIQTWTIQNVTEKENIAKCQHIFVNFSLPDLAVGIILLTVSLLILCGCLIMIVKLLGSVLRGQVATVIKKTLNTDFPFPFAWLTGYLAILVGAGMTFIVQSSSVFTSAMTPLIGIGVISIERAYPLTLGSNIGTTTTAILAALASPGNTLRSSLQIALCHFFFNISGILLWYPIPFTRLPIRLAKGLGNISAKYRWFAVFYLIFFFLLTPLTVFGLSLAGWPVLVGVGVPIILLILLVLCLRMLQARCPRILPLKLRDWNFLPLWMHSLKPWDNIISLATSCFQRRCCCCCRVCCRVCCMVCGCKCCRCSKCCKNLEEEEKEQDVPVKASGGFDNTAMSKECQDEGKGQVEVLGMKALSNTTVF
Assay: Sodium-dependent phosphate uptake of Xenopus oocytes which expressed NaPi-2b (32P)
Type: cell-based
Settings: for IC50: Xenopus oocytes expressing rat NaPi-2b, 32P radioactive phosphorus, read-out: IC50 (phosphate uptake inhibitory activity); for inhibition at 300 µM: phosphate uptake, oocytes expressing rat NaPi-2b, determined from inhibition curve
Procedure, shortened: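 Inhibition at 300 μM and 100 μM was read off one inhibition curve of 32P phosphate uptake. Uptake was measured in Xenopus oocytes cultured 2 days after injection of cRNA for cloned rat NaPi-2b.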

Row | IC50 | inhibition at 300 µM | SMILES
1 | 4240 nM | – | Cc1ccc(/C=N/NC(=O)c2cc(Br)ccc2NC(=O)c2ccncc2)cc1 [Compound 169, N-[4-Bromo-2-(4-methyl-benzylidene-hydrazinocarbonyl)-phenyl]-isonicotinamide]
2 | < 1000 nM | – | CCN(CC)CCN(C)Cc1cccc(C(=O)Nc2ccc(OCC3CCCCC3)cc2C(=O)N/N=C/c2ccc(C)c(C)c2)c1 [Compound 1048, N-[4-Cyclohexylmethoxy-2-(3,4-dimethyl-benzylidene-hydrazinocarbonyl)-phenyl]-3-{[(2-diethylamino-ethyl)-methyl-amino]-methyl}-benzamide]
3 | 1340 nM | – | CCN(CC)CCN(C)Cc1cccc(C(=O)Nc2ccc(N3CCOCC3)cc2C(=O)N/N=C/c2ccc(Cl)c(C(F)(F)F)c2)c1 [Compound 1075, N-[2-(4-Chloro-3-trifluoromethyl-benzylidene-hydrazinocarbonyl)-4-morpholin-4-yl-phenyl]-3-{[(2-diethylamino-ethyl)-methyl-amino]-methyl}-benzamide]
4 | – | 47.8% | Cc1ccc(/C=N/NC(=O)c2cc(Cl)ccc2NC(=O)c2cccc(CN(C)CCCCCCN(C)Cc3cccc(C(=O)Nc4ccc(Cl)cc4C(=O)N/N=C/c4ccc(C)cc4)c3)c2)cc1 [Compound 706, N1-[4-Chloro-2-({2-[(E)-1-(4-methylphenyl)methylidene]hydrazino}carbonyl}phenyl}-3-{[{6-[(3-{[4-chloro-2-({2-[(E)-1-(4-methylphenyl)methylidene]hydrazino}carbonyl}-anilino}carbonyl}benzyl}(methyl)amino)hexyl)(methyl)amino]methyl]-benzamide]
5 | – | 37.6% | COc1cc(OC)cc(C(=O)Nc2ccc(O)cc2C(=O)N/N=C/c2cccc(F)c2)c1 [Compound 242, N-[2-(3-Fluoro-benzylidene-hydrazinocarbonyl)-4-hydroxy-phenyl]-3,5-dimethoxy-benzamide]
6 | 2130 nM | – | Cc1cccc(/C=N/NC(=O)c2ccccc2NC(=O)c2cc(C)oc2C)c1 [Compound 516, 2,5-Dimethyl-furan-3-carboxylic acid [2-(3-methyl-benzylidene-hydrazinocarbonyl)-phenyl]-amide]
7 | < 1000 nM | – | CC(O)CN(Cc1cccc(C(=O)Nc2cc3ccccc3cc2C(=O)N/N=C/c2ccc(Cl)c(C(F)(F)F)c2)c1)CC(C)O (stereo not drawn) [Compound 962, 3-{[Bis-(2-hydroxy-propyl)-amino]-methyl}-N-[3-(4-chloro-3-trifluoromethyl-benzylidene-hydrazinocarbonyl)-naphthalen-2-yl]-benzamide]
8 | 8850 nM | – | COc1ccccc1/C=C/C=N/NC(=O)c1cc(Br)ccc1NC(=O)c1ccncc1 [Compound 353, N-{4-Bromo-2-[3-(2-methoxy-phenyl)-allylidene-hydrazinocarbonyl]-phenyl}-isonicotinamide]
9 | 1120 nM | – | Cc1ccc(/C=N/NC(=O)c2cc3ccccc3cc2NC(=O)c2cccc(CN(CC(C)O)CC(C)O)c2)cc1 (stereo not drawn) [Compound 960, 3-{[Bis-(2-hydroxy-propyl)-amino]-methyl}-N-[3-(4-methyl-benzylidene-hydrazinocarbonyl)-naphthalen-2-yl]-benzamide]
10 | < 1000 nM | – | Cc1ccc(/C=N/NC(=O)c2cc(N3CCOCC3)ccc2NC(=O)c2cccc(CSCCO)c2)cc1C [Compound 1064, N-[2-(3,4-Dimethyl-benzylidene-hydrazinocarbonyl)-4-morpholin-4-yl-phenyl]-3-(2-hydroxy-ethylsulfanylmethyl)-benzamide]
11 | 19400 nM | – | CC(O)CN(Cc1cccc(C(=O)Nc2ccc(N3CCCC3=O)cc2C(=O)N/N=C/c2ccc(Cl)c(C(F)(F)F)c2)c1)CC(C)O (stereo not drawn) [Compound 945, 3-{[Bis-(2-hydroxy-propyl)-amino]-methyl}-N-[2-(4-chloro-3-trifluoromethyl-benzylidene-hydrazinocarbonyl)-4-(2-oxo-pyrrolidin-1-yl)-phenyl]-benzamide]
12 | – | 58.4% | Cc1cccc(/C=N/NC(=O)c2cc(Cl)ccc2NC(=O)c2cccc(CSCc3ccco3)c2)c1 [Compound 699, N-[4-Chloro-2-(3-methyl-benzylidene-hydrazinocarbonyl)-phenyl]-3-(furan-2-ylmethylsulfanylmethyl)-benzamide]
13 | 2310 nM | – | Cc1ccc(/C=N/NC(=O)c2cc(Br)ccc2NC(=O)c2cccc(CNCCN3CCOCC3)c2)cc1C [Compound 279, N-[4-Bromo-2-(3,4-dimethyl-benzylidene-hydrazinocarbonyl)-phenyl]-3-[(2-morpholin-4-yl-ethylamino)-methyl]-benzamide]
14 | < 3000 nM | – | Cc1ccc(/C=N/NC(=O)c2c(C)csc2NC(=O)c2cccc(CN3CCC(O)CC3)c2)cc1C [Compound 593, N-[3-(3,4-Dimethyl-benzylidene-hydrazinocarbonyl)-4-methyl-thiophen-2-yl]-3-(4-hydroxy-piperidin-1-ylmethyl)-benzamide]
15 | 1500 nM | – | CCN(CC)CCN(C)Cc1cccc(C(=O)Nc2ccc(OCCOCCOC)cc2C(=O)N/N=C/c2ccc(Cl)c(C(F)(F)F)c2)c1 [Compound 1036, N-{2-(4-Chloro-3-trifluoromethyl-benzylidene-hydrazinocarbonyl)-4-[2-(2-methoxy-ethoxy)-ethoxy]-phenyl}-3-{[(2-diethylamino-ethyl)-methyl-amino]-methyl}-benzamide]
16 | 1710 nM | – | COc1ccc(C(=O)Nc2scc(C)c2C(=O)N/N=C/c2cccc(F)c2)cc1OC [Compound 517, N-[3-(3-Fluoro-benzylidene-hydrazinocarbonyl)-4-methyl-thiophen-2-yl]-3,4-dimethoxy-benzamide]
17 | 5040 nM | – | O=C(Nc1ccc(Br)cc1C(=O)N/N=C/c1ccc(F)cc1)c1cccc(CSc2nc[nH]n2)c1 [Compound 270, N-[4-Bromo-2-(4-fluoro-benzylidene-hydrazinocarbonyl)-phenyl]-3-(1H-[1,2,4]triazol-3-ylsulfanylmethyl)-benzamide]
18 | 2710 nM | – | Cc1ccc(/C=N/NC(=O)c2cc(Br)ccc2NC(=O)c2cccc(CSc3ccncc3)c2)cc1 [Compound 198, N-[4-Bromo-2-(4-methyl-benzylidene-hydrazinocarbonyl)-phenyl]-3-(pyridin-4-ylsulfanylmethyl)-benzamide]
19 | < 300 nM | – | O=C(Nc1ccc(N2CCCCC2)cc1C(=O)N/N=C/c1ccc(Cl)c(C(F)(F)F)c1)c1cccc(CN2CCc3nc4ncccc4cc3C2)c1 [Compound 897, N-[2-(4-Chloro-3-trifluoromethyl-benzylidene-hydrazinocarbonyl)-4-piperidin-1-yl-phenyl]-3-(7,8-dihydro-5H-1,6,9-triaza-anthracen-6-ylmethyl)-benzamide]
20 | < 3000 nM | – | CN(CCO)Cc1ccc(C(=O)Nc2ccc(Cl)cc2C(=O)N/N=C/c2ccc(F)cc2)cc1 [Compound 413, N-[4-Chloro-2-(4-fluoro-benzylidene-hydrazinocarbonyl)-phenyl]-4-{[(2-hydroxy-ethyl)-methyl-amino]-methyl}-benzamide]
21 | < 3000 nM | – | O=C(Nc1ccc(I)cc1C(=O)N/N=C/c1ccc(F)cc1)c1cccc(CN2CCC(N3CCCCC3)CC2)c1 [Compound 483, 3-[1,4′]Bipiperidinyl-1′-ylmethyl-N-[2-(4-fluoro-benzylidene-hydrazinocarbonyl)-4-iodo-phenyl]-benzamide]
22 | 1900 nM | – | Cc1ccc(/C=N/NC(=O)c2cc(Cl)ccc2NC(=O)c2cccc(CN(CCO)CCO)c2)cc1 [Compound 405, 3-{[Bis-(2-hydroxy-ethyl)-amino]-methyl}-N-[4-chloro-2-(4-methyl-benzylidene-hydrazinocarbonyl)-phenyl]-benzamide]
23 | < 1000 nM | – | O=C(Nc1ccc(N2CCCC2)cc1C(=O)N/N=C/c1ccc(Cl)c(C(F)(F)F)c1)c1cccc(CSCCO)c1 [Compound 920, N-[2-(4-Chloro-3-trifluoromethyl-benzylidene-hydrazinocarbonyl)-4-pyrrolidin-1-yl-phenyl]-3-(2-hydroxy-ethylsulfanylmethyl)-benzamide]
24 | 4510 nM | – | COc1ccc(C(=O)Nc2ccccc2C(=O)N/N=C/c2cc(OC)c(OC)c(OC)c2)cc1OC [Compound 12, 3,4-Dimethoxy-N-[2-(3,4,5-trimethoxy-benzylidene-hydrazinocarbonyl)-phenyl]-benzamide]
25 | 15700 nM | – | CCOc1ccc(C(=O)Nc2ccc(Br)cc2C(=O)N/N=C/c2ccc(F)cc2)cc1 [Compound 502, N-[4-Bromo-2-(4-fluoro-benzylidene-hydrazinocarbonyl)-phenyl]-4-ethoxy-benzamide]
26 | 1420 nM | – | Cc1ccc(/C=N/NC(=O)c2cc(Cl)ccc2NC(=O)c2cccc(CSc3nc[nH]n3)c2)cc1 [Compound 392, N-[4-Chloro-2-(4-methyl-benzylidene-hydrazinocarbonyl)-phenyl]-3-(1H-[1,2,4]triazol-3-ylsulfanylmethyl)-benzamide]
27 | 6710 nM | – | Cc1ccc(/C=N/NC(=O)c2cc(Br)ccc2NC(=O)c2ccc(CNCCN3CCOCC3)cc2)cc1 [Compound 282, N-[4-Bromo-2-(4-methyl-benzylidene-hydrazinocarbonyl)-phenyl]-4-[(2-morpholin-4-yl-ethylamino)-methyl]-benzamide]
